# Measured values published in patent US20240060131A1, “METHOD FOR IDENTIFYING AND/OR REGULATING SENESCENCE” (INSTITUTE OF ZOOLOGY, CHINESE ACADEMY OF SCIENCES, priority 2020, published 2024).
# “Also recorded” adds a separate entry of the source.
# Legend:
# Type in all cases: cell-based, human
# HERVK = assay: RT-qPCR and Western blot of HERVK and senescence markers in hMPCs after HERVK activation or 5-AZA treatment; conditions: RT-qPCR
# Experimental: (§1) Cells were lysed in 1×SDS buffer (100 mM Tris-HCl, pH 6.8, 10% glycerol, 2% SDS and 2%2-mercaptoethanol), boiled for 10 min at 105° C. Protein concentration was measured by BCA kit. Cell lysate was subjected to SDS-PAGE electrophoresis, then transferred to PVDF membrane (Millipore). The membrane was incubated with primary antibody, incubated with secondary antibody conjugated to HRP after washing, then blotted with substrate, the substrate was the mixture of 1000 μL substrate A and 3 μL substrate B (substrate A: 0.2 mM cumaric acid, 1.25 mM luminal, 0.1 M Tris-HCl, pH 8.5; substrate B: 3% H2O2) or Super Signal West Femto Maximum Sensitivity Substrate (Thermo Fisher Scientific). Images were taken by Image Lab software. Quantification was conducted by ImageJ.
# (§2) In accordance with the manufacturer's instructions, total RNA of cell was extracted by TRIzol (Thermo Fisher Scientific); reverse transcribed into cDNA with GoScript reverse transcription system (Promega) for RT-qPCR; RT-qPCR was conducted with THUNDERBIRD qPCR Mix (TOYOBO) and CFX384 real-time system (Bio-Rad Laboratories, Inc.).
# To activate endogenous HERVK, non-targeted control or lentivirus construct with HERVK LTR targeted sgRNA was cloned to lenti-SAM v2 (addgene #75112) through ESP3I site, and co-transfected with lenti-MPH v2 (addgene #89308). […]
# HERVK-activated cell was analyzed by RT-qPCR and Western blot. […]
# hMPCs = assay: Analysis of classical aging characteristics (SA-β-gal, Ki67, clonal expansion) in hMPCs; conditions: hMPCs after HERVK activation or 5-AZA treatment
# Experimental: Cells seeded on coverslip (Thermo Fisher Scientific) were washed by PBS, fixed in 4% paraformaldehyde (PFA), permeabilized in 0.4% Triton X-100, blocked by 10% donkey serum. The coverslip was incubated with primary antibody at 4° C. in blocking buffer, then incubated with secondary antibody at room temperature for 1 h. Nucleus was labelled by Hoechst 33342 (Invitrogen).
# (§3) For 5-azacytidine (5-AZA) treatment, hMPCs were seeded (generation 0 (P0) after treatment), and treated by […] 5-AZA for 4 days, followed by passage and culture in fresh medium. At P2 after treatment (6 days after 5-AZA treatment), cells was used for Ki67 immunofluorescence, SA-O-gal staining and RNA/DNA extraction.
# For lentivirus transduction, hMPCs were seeded (P0 after treatment) and incubated with lentivirus in the presence of polybrene (Sigma-Aldrich) for 24 h. After two passages, treated cells were used for Ki67 immunofluorescence, SA-β-gal staining and RNA/DNA extraction.
# 5 thousand cells were seeded in one well of 6-well plate (Corning) cover with gelatin (Sigma), and cultured for about 10 days. Cells were fixed by 4% PFA, stained by 10% crystal violet for 30 min. Relative cell integral density was calculated by ImageJ software.
# Cells were fixed by a buffer containing 2% (w/v) formaldehyde and 0.2% (w/v) glutaraldehyde for 5 min, and treated by staining buffer containing 1 mg/mL X-gal at 37° C. overnight.
# In particular, relative percentage of cells positive for senescence associated β-galactosidase (SA-β-gal) was increased, the number of Ki67 positive cells was decreased and the clonal expansion ability was reduced (as shown by FIGS. 12C-12E).
# HERVK-LTR5HS = assay: ChIP-qPCR of 5 mC occupation in HERVK-LTR5HS in treated hMPCs; conditions: hMPCs of early passage; vs cells not treated
# Experimental: as §3
# Cells were fixed in 1% formaldehyde dissolved in PBS at room temperature for 10 min, and then, quenched by 125 mM glycine. Cells were lysed on ice for 10 min, and subjected to ultrasonic treatment with Covaris S220. Collected supernatant was incubated with Dynabeads Protein A (Life Technologies, 10001D) pre-mixed with 2.3 μg specified antibody at 4° C. overnight. After washing, samples were digested by Protease K (New England Biolabs), eluted and cross-link-reversed on thermal mixer at 68° C. for 2 h. DNA was extracted with phenol-chloroform-isoamylol, and eluted DNA was analyzed by qPCR.
# 5-AZA (a DNA methyltransferase inhibitor (DNMTi)) was used to treat hMPCs of early passage. ChIP-qPCR and RT-qPCR analyses were performed on treated cells, cells not treated by 5-AZA were used as control.
# cGAS-STING pathway = assay: cGAS-STING innate immune pathway and SASP in hMPCs (Western blot, RT-qPCR); conditions: hMPCs with activated endogenous HERVK
# Experimental: as §1, §2
# To further study the activation of cGAS-STING DNA sensing pathway, the following key characteristics in different senescent hMPCs (including RS, HGPS and WS) and fibroblasts were detected: […] TANK binding kinase 1 (TBK1) and IFN regulating factor 3 (IRF3) as well as proinflammatory cytokines (e.g., IL1B andIL6), these factors were regarded as SASP factors.
structure (smiles),measurement,setting,value
"Nc1ncn([C@@H]2O[C@H](CO)[C@@H](O)[C@H]2O)c(=O)n1 [5-AZA, 5-azacytidine]",senescence marker p16INK4a level,HERVK,increased
same,HERVK RNA level,HERVK; vs untreated or non-targeting sgRNA control,increase
same,SA-β-gal positive cells,hMPCs,increased
same,cell senescence (overall),hMPCs,caused premature senescence; also recorded: induces senescence
same,clonal expansion ability,hMPCs,reduced
same,number of Ki67 positive cells,hMPCs,decreased
same,5 mC occupation in HERVK-LTR5HS,HERVK-LTR5HS,reduce; also recorded: decrease
same,expression of SASP cytokine,cGAS-STING pathway,up-regulated
same,level of phosphorylated IRF3,cGAS-STING pathway,increased
same,level of phosphorylated RelA,cGAS-STING pathway,increased
same,level of phosphorylated TBK1,cGAS-STING pathway,increased
